In series [1] the test system is several mammalian cell types. As to conditions: cited from earlier work.
Series [2] deals with excessive production of reactive oxygen species. As to conditions: cited from earlier work.
For series [3], the system named is LHON patients. As to conditions: cited from earlier work.
Series [4] deals with LHON patients. Particulars: 900 mg/d for 24 weeks, vs placebo; preliminary press release; cited from earlier work.
In series [5] the test system is brain mitochondrial H2O2 production. In words: Brain mitochondrial / synaptosome H2O2 production with rotenone. As to conditions: for decrease of the rate of generation of H2O2 during RET conditions: succinate plus oligomycin. Type of series: biochemical, mouse.
The subject of the next series is quails. Particulars: group with high zeaxanthin concentrations; cited from earlier work.
The subject of series [6] is murine model of LHON (ND6 P25L mutation). In words: Prevention of LHON in ND6 P25L mouse model (Example 1). Particulars: ND6 P25L mice. Type of series: in vivo.
Series [7] shares this test system. The experiment in a line: Treatment of LHON in ND6 P25L mouse model (Example 2). Type of series: in vivo. Particulars: ND6 P25L mice.
Series [8] has as its system human subjects at risk of having, suspected of having, or diagnosed as having LHON. The experiment in a line: Prevention and treatment of LHON in human subjects (Example 3). Type of series: in vivo. The procedure:
Human subjects at risk of having, suspected of having, or diagnosed as having LHON are administered a therapeutically effective amount of an aromatic-cationic peptide of the present technology, such as D-Arg-2′,6′-Dmt-Lys-Phe-NH2, alone or in conjunction with one or more additional therapeutic agents, on a therapeutic schedule appropriate for the prophylactic/therapeutic needs of the individual.
LHON patients are administered 1-10 μg D-Arg-2′,6′-Dmt-Lys-Phe-NH2 or saline vehicle subcutaneously once daily for 12 months. In another treatment group, LHON patients receive 1 drop of 1%, 3%, or 5% D-Arg-2′,6′-Dmt-Lys-Phe-NH2 ophthalmic solution or saline vehicle in both eyes three times per day for 12 months. Subjects are assessed periodically for signs and symptoms associated with LHON according to one or more criteria described herein.

In series [9] the test system is LHON cybrid cells (11778/ND4, 3460/ND1, 14484/ND6). In words: ATP synthesis rate in LHON cybrids (Example 4). Type of series: cell-based, human. Particulars: 1-10 μg, compared to untreated LHON cybrid cells. The source says:
(§1) Cybrid cell lines are constructed using enucleated fibroblasts from a control individual (i.e., negative for LHON) and 3 unrelated probands with LHON as mitochondria donors. One control cybrid cell line and three LHON cybrid cell lines, one for each of the most common pathogenic mutations found in LHON, i.e., mutations at positions 11778/ND4, 3460/ND1, and 14484/ND6 of mtDNA, are produced.
The mitochondrial donor cytoplast is fused with the osteosarcoma (143B.TK-)-derived 206 cell line (rho^0 206 cell line). All fibroblast cell lines are established from skin biopsy samples or from umbilical cord specimens after having obtained the informed consent of LHON and control patients. […]
(§2) 1 ml of each cybrid cell line at 5×10^6 cells/ml is individually plated in tissue culture plates with growth media. […] After incubation for 1 hour at 37° C., the ATP synthesis rate and cellular respiration are measured.
The ATP synthesis rate is assayed by permeabilizing the cells with digitonin according to the method described by Ouhabi et al., Anal Biochem., 263: 169-175 (1998). […] The ATP content is measured using the luciferin-luciferase chemiluminescent method, e.g., described in Stanley et al., Anal Biochem., 29: 381-392 (1969).

The test system is the same in series [10]. In words: Respiratory rate of digitonin-permeabilized LHON cybrids (Example 4). Type of series: cell-based, human. As to conditions: 1-10 μg, compared to untreated LHON cybrid cells.
Text: as §1
The mitochondrial donor cytoplast is fused with the osteosarcoma (143B.TK-)-derived 206 cell line (rho^0 206 cell line). All fibroblast cell lines are established from skin biopsy samples or from umbilical cord specimens after having obtained the informed consent of LHON and control patients. Cell fusions of fibroblast-derived cytoplasts (enucleated fibroblasts) with the rho^0 206 cells are performed using the protocol, e.g., described in King et al., Science, 246: 500-03 (1989). […]
as §2
Respiratory rates of digitonin-permeabilized cell samples are measured at 30° C. using a Clark-type oxygen electrode as previously described by Aicardi et al., Biochem Pharmacol., 31:3703-3705 (1982). The respiratory control ratio (RCR) is evaluated using glutamate-malate as a substrate.

A further series concerns the target mu-opioid receptor (Homo sapiens, UniProt P35372). Particulars: cited from earlier work.
Series [11] relates to reactive oxygen species (ROS) production. Particulars: known in the art; demonstrated in U.S. Pat. Nos. 7,550,439 and 7,576,061; cited from earlier work.
Series [12] concerns caspase activation and apoptosis. As to conditions: known in the art; cited from earlier work.
[13] abbreviates: once daily from 0-14 months of age.
[14] abbreviates: once daily from 14-24 months of age.

Where no end group is shown, it is not given here. [ ]: non-standard residue; d: D form.

Sequence of mu-opioid receptor (P35372 whole entry, species assumed): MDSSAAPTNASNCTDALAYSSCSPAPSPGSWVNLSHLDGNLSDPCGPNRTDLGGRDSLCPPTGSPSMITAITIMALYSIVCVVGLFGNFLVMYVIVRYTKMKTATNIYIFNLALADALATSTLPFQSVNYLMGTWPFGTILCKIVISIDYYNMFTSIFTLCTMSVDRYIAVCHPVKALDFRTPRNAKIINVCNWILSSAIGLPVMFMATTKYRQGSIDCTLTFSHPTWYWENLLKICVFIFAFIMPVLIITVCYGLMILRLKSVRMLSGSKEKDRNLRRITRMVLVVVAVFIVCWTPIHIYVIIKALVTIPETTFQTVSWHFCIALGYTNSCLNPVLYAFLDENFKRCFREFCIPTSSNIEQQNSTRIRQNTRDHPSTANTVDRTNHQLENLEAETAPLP

As for 2′,6′-Dmt-D-Arg-Phe-Lys-NH2, in series [1], the “penetration of the plasma membrane” value was “readily penetrates the plasma membrane of several mammalian cell types in an energy-independent manner”.

In the case of `Cc1c(C)c2c(c(C)c1O)CCC(C)(C(=O)O)O2` (stereo not drawn) [Trolox], the “protective effects in vitro” value in series [2] is given as “modest protective effects”.

Consider `COC1=C(OC)C(=O)C(C/C=C(\C)CC/C=C(\C)CC/C=C(\C)CC/C=C(\C)CC/C=C(\C)CC/C=C(\C)CC/C=C(\C)CC/C=C(\C)CC/C=C(\C)CCC=C(C)C)=C(C)C1=O` [coenzyme Q-10], for which, in series [2], the “protective effects in vitro” value was “modest protective effects”.

With `N[C@@H](CCC(=O)N[C@@H](CS)C(=O)NCC(=O)O)C(=O)O` [glutathione], in series [2], the “protective effects in vitro” value was “modest protective effects”.

For the compound `COC1=C(OC)C(=O)C(CCCCCCCCCCO)=C(C)C1=O` [idebenone], the “diameter of the central scotomas after treatment” value in the series on LHON patients [3] (one 11778/ND4 LHON patient, from about 20 degrees) is “less than 5 degrees”. In addition, the “recovery of visual function” value with LHON patients [3] (seven LHON patients, about 450 mg/d) was “recovery of visual acuity, color vision, and visual fields”. Further, the final visual acuity result with LHON patients [4] is “better final visual acuity than the placebo group”.

As for `C=C(C)[C@H]1Cc2c(ccc3c2O[C@@H]2COc4cc(OC)c(OC)cc4[C@@H]2C3=O)O1` [rotenone], the “decrease of the rate of generation of H2O2 during RET conditions” value is “approximately 59%” in series [5] (ND6 P25L mice) and “approximately 79%” in series [5] (wild-type animals). For the same compound, the “increase of the rate of H2O2 production during forward electron transfer” value in series [5] (ND6 P25L synaptosomes) is approximately 2.7 fold; in series [5] (wild-type synaptosomes), approximately 2.3 fold.

As for `CC1=C(/C=C/C(C)=C/C=C/C(C)=C/C=C/C=C(C)/C=C/C=C(C)/C=C/C2=C(C)C[C@@H](O)CC2(C)C)C(C)(C)C[C@H](O)C1` [zeaxanthin], the “light damage of the retina (apoptotic photoreceptor cells)” value in the series with quails is “minimal damage”.

D-Arg-2′,6′-Dmt-Lys-Phe-NH2: in [6] (setting [13]), the “RGC axonal swelling and preferential loss of smallest fibers” value is given as “prevent the onset of, delay the onset of, or reduce the severity of these effects”; the “abnormal mitochondrial morphology and proliferation in RGC axons” value is listed as “prevent the onset of, delay the onset of, or reduce the severity of these effects”; the “altered liver mitochondria complex I activity” value was “prevent the onset of, delay the onset of, or reduce the severity of these effects”; the “effects of the ND6 P25L mutation; LHON and its symptoms” value is “prevent the onset of, delay the onset of, and/or reduce the severity (e.g., ameliorate) of the effects of the ND6 P25L mutation”. Also, in series [6] (setting [13]), the “forward / reverse electron flow ROS production in liver mitochondria” value is “prevent the onset of, delay the onset of, or reduce the severity of these effects”; the “reduced complex I activity and altered ROS production in synaptosomes” value is “prevent the onset of, delay the onset of, or reduce the severity of these effects”; the “reduced retinal response (electroretinogram deficits)” value is “prevent the onset of, delay the onset of, or reduce the severity of (e.g. ameliorate) these effects”. The “effect of combination compared to any individual therapeutic agent alone” value in [6] (in combination with one or more additional therapeutic agents, prevention) is “synergistic effects”. For the same compound, in [7] (setting [14]), the “RGC axonal swelling and preferential loss of smallest fibers” value is on record as “reduce or eliminate the effects of the ND6 P25L mutation”; the “abnormal mitochondrial morphology and proliferation in RGC axons” value was “reduce or eliminate the effects of the ND6 P25L mutation”; the “altered liver mitochondria complex I activity” value was “reduce or eliminate the effects of the ND6 P25L mutation”; the “forward / reverse electron flow ROS production in liver mitochondria” value was “reduce or eliminate the effects of the ND6 P25L mutation”. In [7] (setting [14]), the “reduced complex I activity and altered ROS production in synaptosomes” value is “reduce or eliminate these effects of the ND6 P25L mutation”; the “reduced retinal response (electroretinogram deficits)” value is “reduce or eliminate the effects of the ND6 P25L mutation”. Further, the “effect of combination compared to any individual therapeutic agent alone” value in series [7] (in combination with one or more additional therapeutic agents, treatment) is “synergistic effects”. Besides, in series [8] (human subjects at risk of, suspected of or diagnosed as having LHON), the “symptoms of LHON” value is given as “prevent the onset of, delay the onset of, or reduce the severity of the symptoms of LHON”. The “effect of combination compared to any individual therapeutic agent alone” value in series [8] (in combination with one or more additional therapeutic agents, human subjects) was “synergistic effects”. Also, the ATP synthesis rate entry in [9] is “greater ATP synthesis rate”. Moreover, the respiratory rate entry in series [10] is reported as “higher respiratory rate”. Moreover, the “mu-opioid receptor agonist activity” value on mu-opioid receptor is recorded as “does not have mu-opioid receptor agonist activity”. For the same compound, the anti-oxidant properties entry in series [11] is given as “possess anti-oxidant properties”. Further, the “caspase activation and apoptosis” value in series [12] is “capacity to inhibit caspase activation and apoptosis”.

As for F[dR]FK-NH2, the “mu-opioid receptor agonist activity” value on mu-opioid receptor was “does not have mu-opioid receptor agonist activity”.

As for Tyr-D-Arg-Phe-Lys-NH2, the “mu-opioid receptor agonist activity” value at mu-opioid receptor was “has mu-opioid receptor agonist activity”.

The record behind these values is patent US20160193278A1, “METHODS AND COMPOSITIONS FOR PREVENTING OR TREATING LEBER'S HEREDITARY OPTIC NEUROPATHY” (STEALTH BIOTHERAPEUTICS CORP, priority 2013, published 2016).
